Like-named read-outs stand apart in the source and are kept apart here.
What was measured:
Type in all cases: in vivo
Sinapis alba [1] = test: Example B: post-emergence herbicidal application, pot test; details: 4000 g/ha, 576 h
Text: (§1) Dans des pots de 7 x 7 x 8 cm remplis de terre agricole légère, on sème un nombre de graines déterminé en fonction de l'espèce végétale et de la grosseur de la graine.
(§2) On recouvre ensuite les graines d'une couche de terre d'environ 3 mm d'épaisseur et on laisse germer la graine jusqu'à ce qu'elle donne naissance à une plantule au stade convenable. Le stade de traitement pour les graminées est le stade "deuxième feuille en formation ". Le stade de traitement pour les dicotylédones, est le stade "cotylédons étalés, première feuille vraie en développement".
(§3) Les pots sont alors traités par pulvérisation de bouillie en quantité correspondant à une dose volumique d'application de 500 l/ha et contenant la matière active à la concentration désirée.
(§4) La bouille a été préparée de la même manière qu'à l'exemple A.
(§5) Les pots traités sont ensuite placés dans des bacs destinés à recevoir l'eau d'arrosage, en subirrigation, et maintenus pendant 24 jours à température ambiante sous 70 % d'humidité relative.
(§6) Au bout de 24 jours, on mesure un pourcentage (D) de destruction du nombre de pieds dans le pot traité par rapport au nombre de plantes dans les pots non traités (témoin). On mesure, sur les plantes traitées restantes, le pourcentage de réduction de taille (RT) par rapport aux plantes témoin.
(§7) Le pourcentage du volume foliaire non détruit par le produit est donc donné par la formule : [formula]
(§8) Cette valeur A est transformée en notation de 0 à 5 selon l'échelle suivante :
(§9) Les résultats obtenus sont présentés après le tableau A pour des doses d'application de 4000 g/ha.

Ipomea purpurea = test: as above; details: 576 h
Text: as §1, §2, §3, §4, §5, §6, §7, §8, §9

Lolium multiflorum = test: as above; details: 4000 g/ha, 576 h
Text: as §1, §2, §3, §4, §5, §6, §7, §8, §9

Solanum nigrum [2] = test: as above; details: 576 h
Text: as §1, §2, §3, §4, §5, §6, §7, §8, §9

Echinochloa crusgalli = test: as above; details: 576 h
Text: as §1, §2, §3, §4, §5, §6, §7, §8, §9

Digitaria sanguinalis = test: as above; details: 576 h
Text: as §1, §2, §3, §4, §5, §6, §7, §8, §9

Sesbania exaltata = test: Example C: selectivity test in major crops, post-emergence application; details: 576 h
Text: as §1
as §2, with “formation".” for “formation ".”
as §3
(§10) La bouillie a été préparée de la même manière qu'à l'exemple A.
as §5, §6
(§11) Le pourcentage de volume foliaire non détruit par le produit est donc donné par la formule : [formula]
as §8
(§12) Ainsi, un produit est jugé comme sélectif vis à vis de la culture lorsque la valeur A notée est de 0 ou 1.
(§13) Les résultats obtenus sont présentés dans l'exemple C pour des doses d'application comprises entre 0,5 et 4 kg de matière active par hectare selon les produits.

Sinapis alba [3] = test: as above; details: 500 g/ha, 576 h
Text: as §1
as §2, with “formation".” for “formation ".”
as §3, §10, §5, §6, §11, §8, §12, §13

Triticum aestivum = test: as above; details: crop (Blé), 24 days, score 0-5, 0 or 1 = selective; also: ranges in brackets are in %
Text: as §1
as §2, with “formation".” for “formation ".”
as §3, §10, §5, §6, §11, §8, §12, §13

Solanum nigrum [4] = test: as above; details: 576 h
Text: as §1
as §2, with “formation".” for “formation ".”
as §3, §10, §5, §6, §11, §8, §12, §13

Ipomea pupurea = test: as above; details: 576 h
Text: as §1
as §2, with “formation".” for “formation ".”
as §3, §10, §5, §6, §11, §8, §12, §13

Zea mays = test: as above; details: crop (Maïs), 24 days, score 0-5, 0 or 1 = selective; also: ranges in brackets are in %
Text: as §1
as §2, with “formation".” for “formation ".”
as §3, §10, §5, §6, §11, §8, §12, §13

Xanthium pennsylvanicum = test: as above; details: 576 h
Text: as §1
as §2, with “formation".” for “formation ".”
as §3, §10, §5, §6, §11, §8, §12, §13

Oryza sativa = test: as above; details: crop (Riz), 24 days, score 0-5, 0 or 1 = selective; also: ranges in brackets are in %
Text: as §1
as §2, with “formation".” for “formation ".”
as §3, §10, §5, §6, §11, §8, §12, §13

mauvaises herbes [5] = test: Procedure 1 b): weed control, pre-emergence application; details: 4000 g/ha (procédé 1B), visual rating 17 to 20 days after spraying, vs control pots
Text: (§14) Des quantités appropriées des composés d'essai ont été dissoutes dans de l'acétone pour obtenir des solutions équivalant à des taux d'application de 250, 1000 ou 4000 g de composé d'essai par hectare (g/ha).
Des graines de mauvaises herbes ont été semées à la surface de compost de mise en pot John Innes N°1 (7 parties par volume de terre végétale stérilisée, 3 parties en volume de gravier fin) dans des pots en matière plastique de 70 mm de côté et 75 mm de profondeur. Les quantités de graines par pot étaient les suivantes :
Les composés de la présente invention ont été appliqués aux graines non recouvertes de la manière décrite dans le paragraphe (a) ci-dessus et ces graines ont été recouvertes avec 25ml de sable liant après pulvérisation. Un seul pot de chaque espèce de mauvaise herbe a été attribué à chaque traitement, en association avec des témoins n'ayant pas subi de pulvérisation et des témoins ayant subi une pulvérisation avec de l'acétone seule. Après traitement, les pots ont été maintenus dans une serre et ont été arrosés par aspersion. L'évaluation visuelle de l'activité de destruction des mauvaises herbes a été effectuée 17 à 20 jours après pulvérisation. Les résultats ont été exprimés par le pourcentage de réduction de croissance ou de mortalité des mauvaises herbes, comparativement aux plantes présentes dans les pots témoins.

mauvaises herbes [6] = details: post-emergence
Text: as §14
Des espèces de mauvaises herbes ont été cultivées, puis transplantées au stade de jeunes plants de semis dans du compost de mise en pot John Innes N°1 dans des pots en matière plastique de 70 mm de côté et 75 mm de profondeur, sauf en ce qui concerne Avena fatua, qui a été semée directement dans le pot d'essai et n' a pas été transplantée. Puis les plantes ont été cultivées dans la serre jusqu'à ce qu'elles soient prêtes à subir une pulvérisation avec les composés d'essai. Le nombre de plantes par pot et la croissance de la plante au moment de la pulvérisation étaient les suivantes :
Les composés d'essai ont été appliquées aux plantes de la manière décrite dans le paragraphe (a) ci-dessus. Un seul pot de chaque espèce de mauvaises a été attribué à chaque traitement, en association avec des témoins n'ayant pas subi de pulvérisation et des témoins ayant subi une pulvérisation avec de l'acétone seule. Après pulvérisation, les pots ont été arrossés par aspersion, en commençant 24 heures après pulvérisation. L'évalutation visuelle de la lutte contre la croissance des mauvaises herbes a été effectuée 17 à 20 jours après pulvérisation. Les résultats ont été exprimés en pourcentage de réduction de croissance ou de mortalité des mauvaises herbes, comparativement aux plantes présentes dans les pots témoins.

Sinapis alba [7] = test: Example B: post-emergence herbicidal application, pot test; details: 1000 g/ha, 576 h
Chrysanthemum segetum = details: post-emergence, 576 h
Text: as §1
as §2, with “formation".” for “formation ".”
as §3, §10, §5, §6, §11, §8, §12, §13

Convolvulus arvensis = details: post-emergence, 576 h
Text: as §1
as §2, with “formation".” for “formation ".”
as §3, §10, §5, §6, §11, §8, §12, §13

Polygonum convolvulus = details: 576 h
Text: as §1
as §2, with “formation".” for “formation ".”
as §3, §10, §5, §6, §11, §8, §12, §13

Viola tricolor = test: Example C: selectivity test in major crops, post-emergence application; details: 576 h
Text: as §1
as §2, with “formation".” for “formation ".”
as §3, §10, §5, §6, §11, §8, §12, §13

SMILES | ACTIVITE HERBICIDE DE POST LEVEE S E S (Sesbania exaltata; 500 g/ha) | ACTIVITE HERBICIDE DE POST LEVEE T R Z (Triticum aestivum; dose 0,5 kg/ha) | ACTIVITE HERBICIDE DE POST LEVEE S O L (Solanum nigrum [4]; 500 g/ha) | ACTIVITE HERBICIDE DE POST LEVEE I P O (Ipomea pupurea; 500 g/ha) | ACTIVITE HERBICIDE DE POST LEVEE Z E A (Zea mays; dose 0,5 kg/ha) | ACTIVITE HERBICIDE DE POST LEVEE X A N (Xanthium pennsylvanicum; 500 g/ha) | ACTIVITE HERBICIDE DE POST LEVEE O R Y (Oryza sativa; dose 0,5 kg/ha) | réduction de la croissance d'une ou plusieurs des espèces de mauvaises herbes (mauvaises herbes [5]) | réduction de la croissance d'une ou plusieurs des espèces de mauvaises herbes (mauvaises herbes [6]) | ACTIVITE DE POST-LEVEE IPO (Ipomea purpurea; 1000 g/ha) | ACTIVITE DE POST-LEVEE SOL (Solanum nigrum [2]; 1000 g/ha) | ACTIVITE DE POST-LEVEE ECH (Echinochloa crusgalli; 1000 g/ha) | ACTIVITE DE POST-LEVEE DIG (Digitaria sanguinalis; 1000 g/ha) | ACTIVITE DE POST-LEVEE SIN (Sinapis alba [7]) | other results
CN(C)S(=O)(=O)n1nc(-c2cccc(Cl)c2)nc1-c1ncccc1C(=O)O [compound 9] | 5 (O à 10) | 0 (90 à 100) | 4 (10 à 30) | 3 (30 à 50) | 2 (50 à 70) | 3 (30 à 50) | 1 (70 à 90) | – | – | – | – | – | – | – | ACTIVITE DE POST-LEVEE SIN (Sinapis alba [1]): 4 (10 à 30); ACTIVITE DE POST-LEVEE IPO (Ipomea purpurea; 4000 g/ha): 3 (30 à 50); ACTIVITE DE POST-LEVEE LOL (Lolium multiflorum): 0 (90 à 100); ACTIVITE DE POST-LEVEE SOL (Solanum nigrum [2]; 4000 g/ha): 3 (30 à 50); ACTIVITE DE POST-LEVEE ECH (Echinochloa crusgalli; 4000 g/ha): 2 (50 à 70); ACTIVITE DE POST-LEVEE DIG (Digitaria sanguinalis; 4000 g/ha): 2 (50 à 70); ACTIVITE HERBICIDE DE POST LEVEE S I N (Sinapis alba [3]): 3 (30 à 50)
CN(C)S(=O)(=O)n1c(-c2ncccc2C(=O)O)nc2cc(OC(F)(F)F)ccc21 [compound 92] | – | – | – | – | – | – | – | ≥ 90% | ≥ 90% | – | – | – | – | – | –
CN(C)S(=O)(=O)n1c(-c2ncccc2C(=O)OCC(F)(F)F)nc2ccccc21 [compound 100] | – | – | – | – | – | – | – | ≥ 90% | ≥ 90% | – | – | – | – | – | –
C=CCOC(=O)c1cccnc1-c1nc2ccccc2n1S(=O)(=O)N(C)C [compound 101] | – | – | – | – | – | – | – | ≥ 90% | ≥ 90% | – | – | – | – | – | –
CN(C)S(=O)(=O)n1c(-c2ncccc2C(=O)O)nc2ccccc21 [compound 119] | 5 (O à 10) | 0 (90 à 100) | 4 (10 à 30) | 3 (30 à 50) | 0 (90 à 100) | 3 (30 à 50) | 0 (90 à 100) | – | – | 3 (30 à 50) | 5 (O à 10) | 0 (90 à 100) | 0 (90 à 100) | 4 (10 à 30) | ACTIVITE HERBICIDE DE POST LEVEE C H Y (Chrysanthemum segetum; 500 g/ha): 5 (O à 10); ACTIVITE HERBICIDE DE POST LEVEE C O N (Convolvulus arvensis; 500 g/ha): 2 (50 à 70); ACTIVITE HERBICIDE DE POST LEVEE P O L (Polygonum convolvulus; 500 g/ha): 5 (O à 10); ACTIVITE HERBICIDE DE POST LEVEE V I O (Viola tricolor; 500 g/ha): 3 (30 à 50)
CN(C)S(=O)(=O)n1c(-c2ncccc2C(=O)O)nc2ccccc21 [compound 122] | – | – | – | – | – | – | – | – | – | 4 (10 à 30) | 5 (O à 10) | 2 (50 à 70) | 1 (70 à 90) | 5 (O à 10) | ACTIVITE HERBICIDE DE POST LEVEE C H Y (Chrysanthemum segetum; 1000 g/ha): 5 (O à 10); ACTIVITE HERBICIDE DE POST LEVEE C O N (Convolvulus arvensis; 1000 g/ha): 5 (O à 10); ACTIVITE HERBICIDE DE POST LEVEE P O L (Polygonum convolvulus; 1000 g/ha): 5 (O à 10); ACTIVITE HERBICIDE DE POST LEVEE S E S (Sesbania exaltata; 1000 g/ha): 5 (O à 10); ACTIVITE HERBICIDE DE POST LEVEE T R Z (Triticum aestivum; dose 1 kg/ha): 0 (90 à 100); ACTIVITE HERBICIDE DE POST LEVEE S O L (Solanum nigrum [4]; 1000 g/ha): 5 (O à 10); ACTIVITE HERBICIDE DE POST LEVEE V I O (Viola tricolor; 1000 g/ha): 3 (30 à 50); ACTIVITE HERBICIDE DE POST LEVEE I P O (Ipomea pupurea; 1000 g/ha): 5 (O à 10); ACTIVITE HERBICIDE DE POST LEVEE Z E A (Zea mays; dose 1 kg/ha): 0 (90 à 100); ACTIVITE HERBICIDE DE POST LEVEE X A N (Xanthium pennsylvanicum; 1000 g/ha): 5 (O à 10); ACTIVITE HERBICIDE DE POST LEVEE O R Y (Oryza sativa; dose 1 kg/ha): 0 (90 à 100)
